# Measurements taken from PubChem BioAssay (NCI).
#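 96-well plates; 48 h exposure; 5 concentrations. Endpoints by linear interpolation between flanking doses. Not reached: highest tested concentration assigned. GI50 is the concentration that inhibits growth by half. TGI marks complete inhibition of growth.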
# Experiments:
# Assay in all cases: NCI anticancer screen, dose series, 48 h
# SF-295 CNS = system: SF-295 CNS
# NCI-H460 lung = system: NCI-H460 lung
# CAKI-1 renal = system: CAKI-1 renal
# RPMI-8226 leukemia = system: RPMI-8226 leukemia
# MOLT-4 leukemia = system: MOLT-4 leukemia
# SF-539 CNS = system: SF-539 CNS
# SK-OV-3 ovarian = system: SK-OV-3 ovarian
# SNB-19 CNS = system: SNB-19 CNS
SMILES,GI50 (SF-295 CNS),TGI (SF-295 CNS),GI50 (NCI-H460 lung),TGI (NCI-H460 lung),GI50 (CAKI-1 renal),TGI (CAKI-1 renal),GI50 (RPMI-8226 leukemia),TGI (RPMI-8226 leukemia),GI50 (MOLT-4 leukemia),TGI (MOLT-4 leukemia),GI50 (SF-539 CNS),TGI (SF-539 CNS),TGI (SK-OV-3 ovarian),TGI (SNB-19 CNS),GI50 (SK-OV-3 ovarian),GI50 (SNB-19 CNS)
NCCNc1nc2ccccc2c2c(=O)c3cc(F)cc(Cl)c3sc12,1.73 µM,3.18 µM,1.7 µM,3.25 µM,1.41 µM,2.8 µM,1.8 µM,3.82 µM,1.82 µM,3.69 µM,1.7 µM,3.08 µM,–,–,–,–
O=C(O)C(Cc1c[nH]c2ccccc12)N1C(=O)c2ccccc2C1=O (stereo not given),–,> 100 µM,–,> 100 µM,–,> 100 µM,–,> 100 µM,–,–,–,> 100 µM,> 100 µM,> 100 µM,–,–
Cc1ccc(NCCNCC(O)CO)c2c(=O)c3ccccc3sc12 (stereo not given),1.52 µM,3.09 µM,0.776 µM,2.43 µM,1.64 µM,3.38 µM,2.48 µM,6.83 µM,–,–,1.67 µM,3.19 µM,3.86 µM,3.23 µM,1.65 µM,1.52 µM
O=C(/C(=N/Nc1cn[nH]c(=O)c1Cl)c1ccccc1)c1ccccc1,–,> 100 µM,–,–,–,93.1 µM,–,60.7 µM,–,97.2 µM,–,71.1 µM,> 100 µM,> 100 µM,–,–
N#CC1=C(N)NC(=S)C(C#N)C12Nc1ccccc1S2 (stereo not given),19.5 µM,47.8 µM,16.7 µM,> 100 µM,11 µM,35.1 µM,61.6 µM,> 100 µM,> 100 µM,> 100 µM,–,–,77.8 µM,> 100 µM,27.1 µM,25.8 µM
COc1ccc(-c2nc(/C=N/Nc3cc(C)nc4ccc(Br)cc34)c(C)o2)cc1,1.9 µM,3.49 µM,1.93 µM,3.73 µM,1.62 µM,2.98 µM,–,–,–,–,1.83 µM,3.3 µM,3.12 µM,3.73 µM,1.7 µM,1.95 µM
CNc1ccc(N=Nc2cccc3ncccc23)cc1,17.8 µM,> 100 µM,–,–,6 µM,> 100 µM,7.43 µM,> 65.6 µM,14.2 µM,> 100 µM,63.8 µM,> 100 µM,> 100 µM,> 100 µM,> 73.9 µM,> 80.6 µM
C#CCn1cc(C=C2C(=O)NC(=S)NC2=O)c2cc(Cl)ccc21,1.93 µM,4.12 µM,2.29 µM,5.12 µM,1.84 µM,4.06 µM,–,–,2.44 µM,6.38 µM,1.82 µM,3.49 µM,14.7 µM,3.16 µM,2.87 µM,1.72 µM
C/C(=N\O)[C@H]1CC[C@@]2(C)[C@@H]3CC[C@H]4C(C)(C)/C(=N/O)CC[C@@]45CC35CC[C@]12C (stereo not given in full),–,–,5.05 µM,> 16.7 µM,–,–,0.696 µM,6.17 µM,3.26 µM,> 16.7 µM,3.14 µM,6.72 µM,> 16.7 µM,> 16.7 µM,6.18 µM,8.21 µM
O=c1c2ccccc2c(=O)c2c1sc1c(=O)c3ccc(O)cc3c(=O)c12,0.178 µM,0.361 µM,–,–,1.29 µM,3.26 µM,1.42 µM,5.25 µM,2.17 µM,8.07 µM,0.245 µM,0.661 µM,2.91 µM,1.24 µM,1.38 µM,0.342 µM
Cc1nc2cc(Nc3nc(Nc4ccc(F)cc4)nc(-c4ccc(Cl)cc4)n3)ccc2n1Cc1ccccc1,4.81 µM,58 µM,6.42 µM,> 100 µM,–,–,2.62 µM,> 100 µM,3.09 µM,> 100 µM,11.3 µM,28.7 µM,> 100 µM,> 100 µM,10.9 µM,9.77 µM
COC12C=C/C(=C(/C(=O)OCc3csc(SC)n3)C(=O)CCCCCCCCC3(OC)C=C/C(=C(/C(=O)OCc4cnc(SC)s4)C(=O)CCCCCCCC1)O3)O2 (stereo not given),3.33 µM,25.7 µM,4.57 µM,> 100 µM,70 µM,> 100 µM,0.946 µM,> 100 µM,–,–,4.03 µM,19.8 µM,> 100 µM,> 100 µM,9.06 µM,8.6 µM
Cc1nnc(N=Nc2c(O)[nH]c3ccccc23)[nH]c1=O,–,> 100 µM,–,> 100 µM,–,–,–,> 100 µM,–,> 100 µM,–,> 100 µM,> 100 µM,> 100 µM,–,–
